Here are results for four compounds from patent US20250127789A1, “COMPOSITIONS USEFUL FOR MODULATING SPLICING” (SKYHAWK THERAPEUTICS, INC., priority 2021, published 2025).

Each structure is given as a SMILES string.

The test system of assay [1] is ATXN3 exon 4 skipped transcripts in SK-N-MC cells. The assay can be described thus: ATXN3 quantitative splicing assay (qPCR of exon 4 skipped transcripts). The format is cell-based. To be noted: Human neuroblastoma SK-N-MC cells, 24 h treatment, read-out: ATXN 3 E4 Skipping EC50. As to the method: Human neuroblastoma SK-N-MC cells were plated in 384-well plates at 20,000 cells/well. Twenty-four hours after plating, cells were treated with compounds for 24 hat appropriate concentrations ranging from 30 µM to 0.6 nM (0.3% DMSO). Treated cells were lysed in 15 μL of lysis buffer, and cDNA was synthesized using the Fast Advanced Cells-to-Ct kit Two μL of each cDNA was used in PCR reactions to confirm the exon 4 skipped transcripts of ATXN3. A second set of primers/probe E4E5 was used to detect the transcripts containing exon 4. The third set of primers/probe E8E9 was used to detect total gene level of ATXN3. The qPCR reactions were prepared in 384-well plates in 10 μL volume, using TaqMan™ Fast Advanced Master Mix with primers and probes shown in the table below. Reactions were run in a Quant Studio 6 qPCR instrument with default settings.
The primers and probes are listed below in Table 3.
A general note: Quantitative PCR measures a nucleic acid by following its amplification.

For assay [2], the system named is total ATXN3 protein in SK-N-MC cells. The assay can be described thus: ATXN3 total protein assay (MSD). Format: cell-based. Conditions: Human neuroblastoma SK-N-MC cells, 48 hours incubation, read-out: ATXN3 Protein Potency IC50. As to the method: Human neuroblastoma SK-N-MC cells were seeded at 10,000 cells/well in 384 well plates one day prior to compound treatment. The concentrations of compounds were tested at appropriate doses ranging from 30 μM to 0.6 nM. After incubation for 48 hours, the cells were lysed with 25 μL of lysis buffer containing protease inhibitors, and total ATXN3 protein levels were assessed by Mesoscale Discovery (MSD) assay developed with one pair of anti-ATXN3 antibodies. The capture and detect antibodies were raised in mouse and rabbit respectively. Anti-rabbit MSD-ST antibody was used for secondary antibody.
ATXN3 recombinant protein was used for standards. The readouts were captured with 35 μL of MSD read buffer and multi-array 384-well high binding plates.

As to `Cc1csc2c(NCc3ccccc3)nnnc12` [Compound 1, N-benzyl-7-methylthieno[3,2-d][1,2,3]triazin-4-amine], the EC50 (as a rule, the concentration at which the effect is half-maximal) in assay [1] is at least 10 µM. In assay [2], the IC50 – broadly, the concentration needed to halve the response being measured – is at least 10 µM.

For the compound `Cc1c(C[C@H](C)N)sc2c(NCc3ccccc3)nnnc12` [Compound 2, (S)-6-(2-aminopropyl)-N-benzyl-7-methylthieno[3,2-d][1,2,3]triazin-4-amine], the EC50 in assay [1] is at least 10 µM. For the same compound, the IC50 in assay [2] is at least 10 µM.

For `Cc1csc2c(NCc3ccncc3)nnnc12` [Compound 3, 7-methyl-N-(pyridin-4-ylmethyl)thieno[3,2-d][1,2,3]triazin-4-amine], in assay [1], the EC50 was at least 10 µM. For the same compound, the IC50 in assay [2] was at least 10 µM.

In the case of `Cc1c(C[C@H](C)N)sc2c(NCc3ccncc3)nnnc12` [Compound 4, (S)-6-(2-aminopropyl)-7-methyl-N-(pyridin-4-ylmethyl)thieno[3,2-d][1,2,3]triazin-4-amine], in assay [1], the EC50 lay within 0.501 to 5 µM. In assay [2], the IC50 lay within 0.501 to 5 µM.
